Measurements taken from ChEMBL document CHEMBL4483862, “Open-source discovery of chemical leads for next-generation chemoprotective antimalarials” (2018).

Test system: Plasmodium berghei
Experiment: Luciferase/luciferin-expressing antifolate-resistant parasites were used to infect a culture of HepG2 cells that were pre-incubated with compounds. Infected hepatocytes emit light due to the luciferase reaction. Assay results are presented as the percent inhibition of light emission compared to control. […]
Assay type: functional
Settings: sporozoite; for IC90: read-out: LUCIFERASE INFECTION ASSAY - IC90

| SMILES | IC90 | further results |
| --- | --- | --- |
| COc1ccc(-c2cc(NC=O)c3ncc(-c4ccc(OC)c(OC)c4)n3c2)c(OC)c1 | 32.6 nM | IC50 (HEPG2TOX_HILL_SLOPE 0.668, HEPG2TOX_R_SQUARED 0.811, PBLUC_HILL_SLOPE 48.6, PBLUC_R_SQUARED 0.635, read-out: LUCIFERASE INFECTION ASSAY - IC50): 31.2 nM |
| Cc1cc(C)n(-c2ccc3c(Cl)cc(Cl)c(O)c3n2)n1 | 393 nM | IC50 (HEPG2TOX_HILL_SLOPE 0.646, HEPG2TOX_R_SQUARED 0.957, PBLUC_HILL_SLOPE 194, PBLUC_R_SQUARED 0.635, read-out: LUCIFERASE INFECTION ASSAY - IC50): 388 nM |
| Oc1cccc(-c2cnc3cnc(-c4ccc(Cl)cc4)cn23)c1 | > 10300 nM | IC50 (HEPG2TOX_HILL_SLOPE 0.659, HEPG2TOX_R_SQUARED 0.949, PBLUC_HILL_SLOPE 0.784, PBLUC_R_SQUARED 0.857, read-out: LUCIFERASE INFECTION ASSAY - IC50): 1550 nM |
| CN(CC(=O)Nc1ccc(Cl)c(S(=O)(=O)N2CCOCC2)c1)C(=O)/C=C/c1cccs1 | > 10000 nM | IC50 (HEPG2TOX_HILL_SLOPE 0.594, HEPG2TOX_R_SQUARED 0.62, read-out: LUCIFERASE INFECTION ASSAY - IC50): > 10000 nM |
| COc1ccc(-c2cc(CN3C(=O)N(C)C4(CCCCC4)C3=O)on2)cc1 | > 10000 nM | IC50 (HEPG2TOX_HILL_SLOPE 0.667, HEPG2TOX_R_SQUARED 0.327, read-out: LUCIFERASE INFECTION ASSAY - IC50): > 10000 nM |
| OC(CSc1nnc(CNc2cccc(C(F)(F)F)c2)n1C1CCCCC1)c1ccccc1 (centres undefined) | > 10000 nM | IC50 (HEPG2TOX_HILL_SLOPE 0.64, HEPG2TOX_R_SQUARED 0.795, PBLUC_HILL_SLOPE 0.508, PBLUC_R_SQUARED 0.492, read-out: LUCIFERASE INFECTION ASSAY - IC50): 1130 nM |
| COc1ccc(-c2ccc3ncc(-c4ccc(NC(C)=O)cc4)n3n2)cc1OC | 53 nM | IC50 (HEPG2TOX_HILL_SLOPE 0.646, HEPG2TOX_R_SQUARED 0.97, PBLUC_HILL_SLOPE 3.16, PBLUC_R_SQUARED 0.759, read-out: LUCIFERASE INFECTION ASSAY - IC50): 26.4 nM |
| Nc1ncnc(N/N=C/c2c(O)ccc3ccccc23)c1[N+](=O)[O-] | > 10000 nM | IC50 (HEPG2TOX_HILL_SLOPE 0.612, HEPG2TOX_R_SQUARED 0.82, read-out: LUCIFERASE INFECTION ASSAY - IC50): > 10000 nM |
| O=C(Cn1cnc2sccc2c1=O)c1ccc(C2CCCCC2)cc1 | > 10000 nM | IC50 (HEPG2TOX_HILL_SLOPE 0.627, HEPG2TOX_R_SQUARED 0.608, PBLUC_HILL_SLOPE 1.31, PBLUC_R_SQUARED 0.795, read-out: LUCIFERASE INFECTION ASSAY - IC50): 2580 nM |
| CCOc1cccc(-c2cn3c(-c4ccc5c(ccn5C)c4)cnc3cn2)c1 | 63.7 nM | IC50 (HEPG2TOX_HILL_SLOPE 0.658, HEPG2TOX_R_SQUARED 0.817, PBLUC_HILL_SLOPE 2.41, PBLUC_R_SQUARED 0.611, read-out: LUCIFERASE INFECTION ASSAY - IC50): 25.6 nM |
| O=C1CCCN1c1ccc(CNc2ccccc2S(=O)(=O)C(F)(F)F)cc1 | > 10000 nM | IC50 (HEPG2TOX_HILL_SLOPE 0.628, HEPG2TOX_R_SQUARED 0.884, read-out: LUCIFERASE INFECTION ASSAY - IC50): > 10000 nM |
| Fc1ccc(-c2csc3ncnc(NCc4ccc(CN5CCOCC5)cc4)c23)cc1 | 7440 nM | IC50 (HEPG2TOX_HILL_SLOPE 0.615, HEPG2TOX_R_SQUARED 0.878, PBLUC_HILL_SLOPE 1.43, PBLUC_R_SQUARED 0.575, read-out: LUCIFERASE INFECTION ASSAY - IC50): 1590 nM |
| COc1ccc(-c2cnc3cnc(-c4ccccc4N(C)C)cn23)cc1 | 409 nM | IC50 (HEPG2TOX_HILL_SLOPE 0.622, HEPG2TOX_R_SQUARED 0.863, PBLUC_HILL_SLOPE 8.14, PBLUC_R_SQUARED 0.832, read-out: LUCIFERASE INFECTION ASSAY - IC50): 312 nM |
| O=[N+]([O-])c1ccccc1/C=N/n1c(-c2ccc(Cl)cc2)cs/c1=N\CC1CCCO1 (centres undefined) | 7090 nM | IC50 (HEPG2TOX_HILL_SLOPE 0.61, HEPG2TOX_R_SQUARED 0.914, PBLUC_HILL_SLOPE 1.45, PBLUC_R_SQUARED 0.571, read-out: LUCIFERASE INFECTION ASSAY - IC50): 1550 nM |
| C=CCn1c(SCc2c(C)noc2C)nc2scc(C3CC3)c2c1=O | 51.9 nM | IC50 (HEPG2TOX_HILL_SLOPE 0.626, HEPG2TOX_R_SQUARED 0.778, PBLUC_HILL_SLOPE 13, PBLUC_R_SQUARED 0.397, read-out: LUCIFERASE INFECTION ASSAY - IC50): 43.9 nM |
| Cc1cc(C(=O)CSc2nc3ccccc3[nH]2)c(C)n1-c1ccc(F)cc1 | 513 nM | IC50 (HEPG2TOX_HILL_SLOPE 0.596, HEPG2TOX_R_SQUARED 0.924, PBLUC_HILL_SLOPE 3.63, PBLUC_R_SQUARED 0.908, read-out: LUCIFERASE INFECTION ASSAY - IC50): 280 nM |

| SMILES | IC90 | further results |
| --- | --- | --- |
| Cc1ccccc1-c1cn2c(-c3ccc(CO)cc3)cnc2cn1 | 10400 nM | IC50 (HEPG2TOX_HILL_SLOPE 0.675, HEPG2TOX_R_SQUARED 0.753, PBLUC_HILL_SLOPE 1.37, PBLUC_R_SQUARED 0.689, read-out: LUCIFERASE INFECTION ASSAY - IC50): 2100 nM |
| COc1cc(/C=N/NC(=O)c2cc(C)n(-c3ccccc3)c2C)ccc1OCC(=O)Nc1c(C)cc(C)cc1C | 8350 nM | IC50 (HEPG2TOX_HILL_SLOPE 0.635, HEPG2TOX_R_SQUARED 0.731, PBLUC_HILL_SLOPE 5.43, PBLUC_R_SQUARED 0.0161, read-out: LUCIFERASE INFECTION ASSAY - IC50): 5570 nM |
| Cc1cc(C(=O)/C(C#N)=N/Nc2ccc(Cl)cc2)n(C(C)(C)C)n1 | 7210 nM | IC50 (HEPG2TOX_HILL_SLOPE 0.671, HEPG2TOX_R_SQUARED 0.767, PBLUC_HILL_SLOPE 2.12, PBLUC_R_SQUARED 0.724, read-out: LUCIFERASE INFECTION ASSAY - IC50): 2560 nM |
| CSc1ccc(C=C2C(=O)OC(C)(C)OC2=O)s1 | > 11600 nM | IC50 (HEPG2TOX_HILL_SLOPE 0.602, HEPG2TOX_R_SQUARED 0.801, PBLUC_HILL_SLOPE 0.853, PBLUC_R_SQUARED 0.0835, read-out: LUCIFERASE INFECTION ASSAY - IC50): > 11600 nM |
| Fc1cccc(-c2cnc3sc(NCCc4ccncc4)nn23)c1 | > 9720 nM | IC50 (HEPG2TOX_HILL_SLOPE 0.66, HEPG2TOX_R_SQUARED 0.128, read-out: LUCIFERASE INFECTION ASSAY - IC50): > 9720 nM |
| Cc1cc(Cl)n2ncc(-c3ccc(F)cc3)c2n1 | 12300 nM | IC50 (HEPG2TOX_HILL_SLOPE 0.63, HEPG2TOX_R_SQUARED 0.416, PBLUC_HILL_SLOPE 2.81, PBLUC_R_SQUARED 0.71, read-out: LUCIFERASE INFECTION ASSAY - IC50): 5620 nM |
| CNS(=O)(=O)c1cccc(C(=O)Nc2ccc(Cl)c(C(F)(F)F)c2)c1 | > 10000 nM | IC50 (HEPG2TOX_HILL_SLOPE 0.613, HEPG2TOX_R_SQUARED 0.555, PBLUC_HILL_SLOPE 3.22, PBLUC_R_SQUARED 0.568, read-out: LUCIFERASE INFECTION ASSAY - IC50): 7210 nM |
| COc1ccc(CNc2ncnc3scc(-c4ccccc4)c23)cc1OC | 9560 nM | IC50 (HEPG2TOX_HILL_SLOPE 0.633, HEPG2TOX_R_SQUARED 0.925, PBLUC_HILL_SLOPE 1.59, PBLUC_R_SQUARED 0.666, read-out: LUCIFERASE INFECTION ASSAY - IC50): 2400 nM |
| Cc1ccccc1C(Sc1nnc(-c2ccc[nH]2)o1)c1ccccc1 (centres undefined) | > 10000 nM | IC50 (HEPG2TOX_HILL_SLOPE 0.627, HEPG2TOX_R_SQUARED 0.488, read-out: LUCIFERASE INFECTION ASSAY - IC50): > 10000 nM |
| Cn1ccc2cc(-c3cnc4cnc(-c5ccccc5Cl)cn34)ccc21 | 43 nM | IC50 (HEPG2TOX_HILL_SLOPE 0.673, HEPG2TOX_R_SQUARED 0.619, PBLUC_HILL_SLOPE 2.33, PBLUC_R_SQUARED 0.732, read-out: LUCIFERASE INFECTION ASSAY - IC50): 16.8 nM |
| CNc1snc(C)c1C(=O)NC(C)c1ccc(C(C)C)cc1 (centres undefined) | 2910 nM | IC50 (HEPG2TOX_HILL_SLOPE 0.648, HEPG2TOX_R_SQUARED 0.871, PBLUC_HILL_SLOPE 1.92, PBLUC_R_SQUARED 0.818, read-out: LUCIFERASE INFECTION ASSAY - IC50): 930 nM |
| O=C(CSc1nnc(-c2ccccc2)o1)Nc1ncc(Cl)cc1Cl | 1200 nM | IC50 (HEPG2TOX_HILL_SLOPE 0.667, HEPG2TOX_R_SQUARED 0.783, PBLUC_HILL_SLOPE 16.1, PBLUC_R_SQUARED 0.672, read-out: LUCIFERASE INFECTION ASSAY - IC50): 1050 nM |
| CC(C)NS(=O)(=O)c1cccc(CNc2ncnc3ccccc23)c1 | 2340 nM | IC50 (HEPG2TOX_HILL_SLOPE 0.638, HEPG2TOX_R_SQUARED 0.943, PBLUC_HILL_SLOPE 2.45, PBLUC_R_SQUARED 0.694, read-out: LUCIFERASE INFECTION ASSAY - IC50): 954 nM |
| CC(=O)Nc1ccc(-c2ccc3ncc(-c4ccc(CO)cc4)n3n2)cc1 | > 10000 nM | IC50 (HEPG2TOX_HILL_SLOPE 0.612, HEPG2TOX_R_SQUARED 0.859, PBLUC_HILL_SLOPE 1.16, PBLUC_R_SQUARED 0.655, read-out: LUCIFERASE INFECTION ASSAY - IC50): 1900 nM |
| Cc1ccc(-n2ncc(C(=O)Nc3ccncc3)c2C2CC2)cc1Cl | 7690 nM | IC50 (HEPG2TOX_HILL_SLOPE 0.617, HEPG2TOX_R_SQUARED 0.925, PBLUC_HILL_SLOPE 1.2, PBLUC_R_SQUARED 0.513, read-out: LUCIFERASE INFECTION ASSAY - IC50): 1230 nM |
| CCOc1cccc(C2Nc3ccccc3C(=O)N2C2CC2)c1O (centres undefined) | 9550 nM | IC50 (HEPG2TOX_HILL_SLOPE 0.644, HEPG2TOX_R_SQUARED 0.857, PBLUC_HILL_SLOPE 2.2, PBLUC_R_SQUARED 0.323, read-out: LUCIFERASE INFECTION ASSAY - IC50): 3510 nM |
